Laboratory results reported in article PMC12609579, “Acute Myeloid Leukemia: A Key Role of DGKα and DGKζ in Cell Viability” (Cells, 2025).
Like-named read-outs stand apart in the source and are kept apart here.

Key:
KG-1α = test system: KG-1α; parameters: method as in PMID 37392305; conditions: read-out: IC50 (cytotoxic effects), cited from earlier work
THP-1 cells [1] = assay: IPA canonical pathway analysis of differentially abundant proteins; type: cell-based, human; conditions: THP-1, 24 h; ritanserin 50 µM, BAY 2965501 75 µM
Source text: A Venn diagram was created to depict the overlap of differentially abundant proteins shared between the two treatments. These proteins, along with their gene symbols and log2FC values, were then used as input for IPA Core Analysis. The following filters were applied: human species and reference tissues/cells (hematopoietic progenitor cells, macrophages, monocytes, peripheral blood monocytes, and THP1 leukemic cells). The resulting Ingenuity Canonical Pathways were downloaded using standard filters and further refined to consider only those with a |Z-score| > 1. For ritanserin vs. DMSO, the top 15 most significant pathways were represented in a bar plot, while for BAY 2965501 vs. DMSO, only three significant pathways were identified and plotted.

[2] = test system: normal hematopoietic stem cell samples; parameters: method as in PMID 37392305; conditions: 40 μM; cited from earlier work
THP-1 cells [3] = assay: Proteomic profiling (DIA mass spectrometry) of treated THP-1 cells vs DMSO; type: cell-based, human
Protocol: Cells were lysed in RIPA buffer and sonicated. Proteins were precipitated with cold acetone, pelleted, and resuspended. Reduction was carried out in 25 µL of 100 mM NH4HCO3 with 2.5 µL of 200 mM DTT (Merck, St. Louis, MO, USA) at 60 °C for 45 min, followed by alkylation with 10 µL of 200 mM iodoacetamide (Merck, St. Louis, MO, USA) for 1 h at room temperature in the dark. Excess iodoacetamide was quenched by adding 200 mM DTT. Proteins were then digested with trypsin, dried by SpeedVac, and desalted. Peptides were analyzed on an Ultimate 3000 RSLCnano system coupled to an Orbitrap Exploris 480 equipped with FAIMS (all from Thermo Fisher Scientific). Samples were loaded onto a reversed-phase C18 column (15 cm × 75 µm i.d., Thermo Fisher Scientific) and eluted at 500 nL min^−1 using a 6–95% solvent B gradient over 41 min, followed by 1 min of re-equilibration at 6% B. Data were acquired in positive mode with a spray voltage of 2500 V and FAIMS in standard resolution at a compensation voltage of −45 V. Data-independent acquisition (DIA) was performed with a precursor m/z range of 400–900, using 8 m/z isolation windows with 1 m/z overlap, HCD collision energy of 27%, Orbitrap resolution of 30,000, RF Lens 50%, normalized AGC target 1000, maximum injection time 25 ms, and 1 microscan. DIA data were processed with DIA-NN (v1.8.1) in library-free mode, applying deep-learning prediction for spectra, retention times, and ion mobility. Searches assumed Trypsin/P specificity, precursor charges 1–4, peptide lengths of 7–30 amino acids, and precursor m/z values of 400–900, allowing up to two missed cleavages. Carbamidomethylation of Cys was set as a fixed modification; Met oxidation was set as a variable modification (maximum two per peptide). The false discovery rate was maintained at 1%.
Normalized data from two independent proteomic experiments were obtained, each comparing a treatment condition to DMSO: (1) ritanserin vs. DMSO and (2) BAY 2965501 vs. DMSO. For each condition, three biological replicates were analyzed.
Protein abundance differences were calculated separately for each treatment relative to DMSO using a t-test, generating log2 fold change (log2FC) and adjusted p-values (p-adj). All proteins identified by UniProt ID were annotated with the corresponding gene symbol using QIAGEN Ingenuity Pathway Analysis (IPA; QIAGEN Inc., https://digitalinsights.qiagen.com/IPA, accessed on 5 June 2025). Proteins lacking a gene symbol were annotated as NA [42].
Data were filtered to include only proteins with |log2FC| > 2 and p-adj < 0.05, and retaining those annotated with a gene symbol.
Cells treated with equal amounts of DMSO (vehicle) were used as controls.

[4] = test system: bone marrow mononuclear cells from primary AML samples; parameters: method as in PMID 37392305; conditions: 40 μM; cited from earlier work
HL-60 cells = assay: alamarBlue cell viability assay, HL-60; type: cell-based, human
Protocol: (§1) The alamarBlue assay was performed to assess cell viability in presence of chemical inhibitors. A total of 50,000 cells per well were seeded in a 96-wells plate in a volume of 100 μL of complete medium together with 10 μL of 10× concentrated inhibitor solution and then incubated for either 24 or 72 h. Each experimental condition was performed in technical quadruplicates, using cells treated with equal amounts of DMSO vehicle as control and medium alone as background. After incubation, alamarBlue was added to each well at a final concentration of 0.15 mg/mL. The fluorescence of the samples was measured 24 h later using a Spark 10 M Multimode Plate Reader (Tecan, Switzerland) with excitation and emission wavelengths of 535 nm and 590 nm, respectively. For dose–response curve fitting, fluorescence values were normalized according to the following formula:Viability (%) = [(sample mean fluorescence)/(DMSO control mean fluorescence)] ∗ 100
(§2) Data are the results of at least five independent experiments analyzed with GraphPad Prism 10 as [inhibitor] vs. normalized response curve (variable slope, after manual outlier removal).

K562 cells = assay: alamarBlue cell viability assay, K562; type: cell-based, human
Protocol: as §1, §2

SMILES: Cc1nc2sccn2c(=O)c1CCN1CCC(=C(c2ccc(F)cc2)c2ccc(F)cc2)CC1 [ritanserin]
- IC50 (KG-1α; 24 h): 38 µM
- IC50 (KG-1α; 72 h): 26 µM
- number of pathways affected / significantly downmodulated (THP-1 cells [1]): more than 500
- apoptosis, % of cells [2]: below 30%
- number of significantly downregulated proteins (THP-1 cells [3]; THP-1, 24 h, ritanserin 50 µM, BAY 2965501 75 µM, vs DMSO): approximately 1200
- number of significantly upregulated proteins (THP-1 cells [3]; THP-1, 24 h, ritanserin 50 µM, vs DMSO): 14
- log2FC A2M (P01023) protein abundance vs DMSO (THP-1 cells [3]; THP-1, ritanserin 50 µM, 24 h): 4.998
- log2FC AAAS (Q9NRG9) protein abundance vs DMSO (THP-1 cells [3]; THP-1, ritanserin 50 µM, 24 h): 0.1245
- log2FC AACS (Q86V21) protein abundance vs DMSO (THP-1 cells [3]; THP-1, ritanserin 50 µM, 24 h): 1.025
- log2FC AAK1 (Q2M2I8) protein abundance vs DMSO (THP-1 cells [3]; THP-1, ritanserin 50 µM, 24 h): -2.961
- log2FC AAMDC (Q9H7C9) protein abundance vs DMSO (THP-1 cells [3]; THP-1, ritanserin 50 µM, 24 h): -1.488
- number of differentially abundant proteins (THP-1 cells [3]; THP-1, |log2FC| > 2 and p-adj < 0.05, with gene symbol, vs DMSO): 1210
- apoptosis, % of cells [4]: up to 70%
- IC50 (HL-60 cells; HL-60, 24 h treatment then alamarBlue 24 h): ~38 µM
- IC50 (HL-60 cells; Homo sapiens, HL-60, 24 h, HL-60, 24 h treatment then alamarBlue 24 h): 37.6 ± 1.5 µM
- IC50 (HL-60 cells; Homo sapiens, HL-60, HL-60, 72 h treatment then alamarBlue 24 h): 25.3 ± 0.9 µM
- IC50 (K562 cells; Homo sapiens, K562, 24 h, K562, 24 h treatment then alamarBlue 24 h): 70.4 ± 2.2 µM
- IC50 (K562 cells; Homo sapiens, K562, K562, 72 h treatment then alamarBlue 24 h): 42.5 ± 1.8 µM
- IC50 (K562 cells; K562, 24 h treatment then alamarBlue 24 h): ~70 µM
